From article PMC9181899, “Synthesis and Anticancer Properties of New 3-Methylidene-1-sulfonyl-2,3-dihydroquinolin-4(1H)-ones” (Molecules, 2022) come the findings set out here.

Each structure is given as a SMILES string. Like-named read-outs stand apart in the source and are kept apart here.

One experiment deals with HUVEC cells. Briefly: MTT in vitro cytotoxicity assay, HUVEC (normal cells). The settings on record: Homo sapiens, HUVEC, 48 h incubation, mean ± SEM. It is filed as cell-based, human. As to the method: (§1) The promyelocytic leukemia HL-60 and breast cancer adenocarcinoma MCF-7 cell lines were purchased from the European Collection of Cell Cultures (ECACC). Leukemia cells were cultured in RPMI 1640 plus GlutaMax I medium (Gibco/Life Technologies, Carlsbad, CA, USA). MCF-7 cells were maintained in Minimum Essential Medium Eagle (Sigma Aldrich, St. Louis, MO, USA) and supplemented with 2 mM glutamine and men non-essential amino acid solution (Sigma Aldrich, St. Louis, MO, USA). Both media were supplemented with 10% heat-inactivated fetal bovine serum (Biological Industries, Beit-Haemek, Israel) and antibiotics (100 U/mL penicillin and 100 μg/mL streptomycin) (Sigma-Aldrich, St. Louis, MO, USA). Human umbilical vein endothelial cells (HUVECs) were purchased from the American Type Culture Collection (ATCC). Cells were cultured using EGM-2 Endothelial Medium BulletKit purchased from Lonza (Lonza, Walkersville, MD, USA). Cells were maintained at 37 °C in 5% CO2 atmosphere and grown until 80% confluent.
(§2) The tested compounds were dissolved in sterile dimethyl sulfoxide (DMSO) and further diluted with culture medium. The final concentration of DMSO in cell cultures was less than 0.1% v/v. Controls without and with 0.1% DMSO were performed in each experiment. At the used concentration, DMSO had no effect on the observed parameters.
(§3) The MTT (3-(4,5-dimethylthiazol-2-yl)-2,5-diphenyltetrazolium bromide) assay, which measures the activity of cellular dehydrogenases, was performed according to the Mosmann method. Exponentially growing cells were seeded into 24-well plates at a density of 8 × 10^4 cells/mL and left to grow for 24 h. After 24 h or 48 h of incubation with various concentrations of the tested compounds (dissolved in DMSO and diluted with complete culture medium), cells were incubated with 0.1 mL of MTT solution (5 mg/mL in phosphate buffered saline) for 1.5 h. The metabolically active cells reduced MTT to blue formazan crystals. The plates were centrifuged, and the supernatant was discarded. DMSO (1 mL) was added to each well to dissolve the crystals, whose absorbance was measured at 560 nm using FlexStation 3 Multi-Mode Microplate Reader (Molecular Devices, LLC, San Jose, CA, USA). The untreated cells were used as control. The IC50 values were calculated from the concentration–response curves. The data were expressed as mean ± SEM of three independent experiments.

In experiment [1] the test system is HL-60 cells. In words: Apoptosis by FITC-Annexin V and PI double-staining, flow cytometry. It is filed as cell-based. The following applies: 1.8 µM, 24 h. As to the method:
Pro-apoptotic activity of 5a was also confirmed using FITC-Annexin V and PI double-staining, based on the loss of plasma membrane asymmetry (phosphatidylserine externalization), which is a marker of the earlier stages of apoptosis.
Apoptotic cell death was determined using FITC-Annexin V Apoptosis Detection Kit I (BD Bioscience, San Jose, CA, USA). Briefly, HL-60 cells were seeded in the 6-well plates (4.0 × 10^5 cells/well) in 2 mL of the culture medium and treated with […] for 24 h. Afterwards, the cells were collected by centrifugation (300× g, 5 min), washed with PBS, re-suspended in binding buffer and stained with FITC-conjugated annexin V and propidium iodide (PI) according to the manufacturer guidelines (15 min, at room temperature). The samples were analyzed by flow cytometry using CytoFLEX (Beckman Coulter, Inc., Brea, CA, USA). Data analysis was performed using Kaluza Analysis Software v2 (Beckman Coulter, Inc., Brea, CA, USA).
On the technique in general: A flow cytometer gives signals particle by particle.

For another experiment, the system named is MCF-7 cells. Briefly: MTT in vitro cytotoxicity assay, MCF-7. It is filed as cell-based. The settings on record: Homo sapiens, MCF7, 48 h incubation, mean ± SEM. As to the method:
as §1, §2, §3

Experiment [2] concerns HL-60 cells. Briefly: MTT in vitro cytotoxicity assay, HL-60. It is filed as cell-based. The settings on record: Homo sapiens. As to the method:
as §1, §2, §3

In the next experiment the test system is ABCB1 gene expression. In words: Real-time PCR of ABCB1 mRNA level in HL-60 cells. The experiment is classed as cell-based. The following applies: higher concentration (1.8 µM; 0.9 and 1.8 µM tested), 24 h. The text has this:
Overexpression of ATP-binding cassette (ABC) transporters causing multidrug resistance (MDR) in cancer cells is one of the major problems associated with poor therapeutic outcome of anticancer drugs. ABC transporters reduce the cellular uptake of drugs into cancer cells, defending them from medical interventions. In leukemia cells ABCB1 (P-glycoprotein), overexpression has been observed. […] It seemed interesting to determine if 3-methylidenequinolin-4-one 5a would also down-regulate ABCB1 mRNA levels in leukemia HL-60 cells. Here, we tested the ABCB1 gene expression of 5a at two concentrations, 0.9 and 1.8 µM. Compound 5a decreased the ABCB1 mRNA level at a higher concentration (Figure 6).
The mRNA level of the ABCB1 gene was assessed using quantitative real-time PCR. Briefly, HL-60 cells were seeded in 6-well plates (4.0 × 10^5 cells/mL) in 2 mL of growth medium and treated with 5a for 24 h. Total RNA was extracted using the Total RNA Mini Kit (A&A Biotechnology, Gdynia, Poland) according to the manufacturer’s protocol. The concentration of RNA used for further experiments was 500 ng. cDNA was synthesized using Transcriba Kit (A&A Biotechnology, Gdynia, Poland). […] The expression level of ABCB1 gene was determined by the 2^−∆∆CT method.

As to `C=C1C(=O)c2ccccc2N(S(=O)(=O)c2ccccc2)C1CC` (stereo not shown) [Compound 5a, 2-Ethyl-3-methylidene-1-(phenylsulfonyl)-2,3-dihydroquinolin-4(1H)-one], the IC50 (in general, the concentration that inhibits the measured activity by half) in the experiment on HUVEC cells turned out to be 1.87 ± 0.02 µM; with MCF-7 cells, 2.74 ± 0.07 µM; in the experiment with HL-60 cells [2] (HL-60, 24 h, 24 h incubation, read-out: IC50 HL-60 after 24 h incubation), 0.91 ± 0.03 µM; with HL-60 cells [2] (HL-60, 48 h, 48 h incubation, mean ± SEM, read-out: IC50 HL-60), 0.34 ± 0.03 µM. Further, the “early apoptotic cell fraction (Annexin V-positive)” value in the experiment on HL-60 cells [1] was “up to 13.9%”. Further, in the experiment on HL-60 cells [1], the “late apoptotic cell fraction (Annexin V- and PI-positive)” value is given as ≤ 13.7%. In addition, in the experiment on ABCB1 gene expression, the “ABCB1 mRNA level” value is on record as “decreased”.
